Assay results as given in patent publication US8367716B2 (priority 2003, dated 2013).

Tests used:
S. aureus DK825 = experiment: Effect on growth rate and cell count of S. aureus; format: cell-based, Staphylococcus aureus
Description: Effect on growth rate of S. aureus. S. aureus DK825 was subcultured from glycerol stocks onto a blood agar plate and incubated at 37° C. for 18 h. A single colony was then inoculated into 5 ml TSB broth (supplemented with 0.25% glucose) and incubated at 37° C. for 24 h with shaking at 250 rpm. From a 10^−3 dilution of the overnight culture a 100 μl aliquot was inoculated into tubes containing 5 ml TSB broth resulting in an initial cell count of […] (confirmed by plating). For “treated” samples, an appropriate aliquot of c-di-GMP was added to give 200 μM c-di-GMP (final concentration). As a negative “untreated” control, tubes containing TSB and a similar volume of 0.9% NaCl were included in the studies. At time zero, 50 μl from each sample was plated on blood agar plates to determine the initial cfu/ml. […]

V. cholerae N16961 = experiment: Crystal violet quantitative biofilm assay in glass test tubes; format: cell-based, Vibrio cholerae

With `Nc1nc2c(ncn2C2OC3COP(=O)(O)OC4C(COP(=O)(O)OC3C2O)OC(n2cnc3c(=O)[nH]c(N)nc32)C4O)c(=O)[nH]1` (centres unmarked) [c-di-GMP, 3′,5′-cyclic diguanylic acid] the final cell count (S. aureus DK825; 200 μM, 24 h static culture, no difference to untreated) was 6×10^8 CFU/ml, the “effect on growth rate” value (S. aureus DK825; 200 μM, hourly examination up to 8 h) was “no obvious effect” and the “inhibition of cell viability” value (S. aureus DK825; as recalled in Example 5 from Example 3) was “approximately 1 log”. The “effect on biofilm formation” value (V. cholerae N16961; N16961 wildtype, 24 h static, LB, dose-dependent) was “increase biofilm formation” and the “effect on biofilm formation” value (V. cholerae N16961; RocS mutant) was “increased biofilm forming activity”.
